Laboratory results as given in PubChem BioAssay AID248 (DTP/NCI, 2004).
“And” between values parts separate entries of the source, which are not always exact repeats. Identical values can stand only once. Toxic doses and inconclusive results are not listed. Cut-off read from the data, not from the text of the source: active = T/C of 150% or more; inactive = T/C below 125%.

Test system: L1210 leukemia ip in BDF1 mice, survival T/C
Assay: NCI In Vivo Anticancer Drug Screen. Data for tumor model L1210 Leukemia (intraperitoneal) in B6D2F1 (BDF1) mice
Settings: endpoint: mean survival time, higher = longer survival
In short: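 Tumor cells were implanted, animals were treated, and survival was followed. The result divides the treated measurement by the vehicle-control measurement.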

[1] = dose: 100.0 mg/kg/injection, schedule: Q01DX001 (ip), vehicle: saline
[2] = dose: 200.0 mg/kg/injection, schedule: Q01DX001 (ip), vehicle: saline
[3] = dose: 400.0 mg/kg/injection, schedule: Q01DX001 (ip), vehicle: saline
[4] = dose: 50.0 mg/kg/injection, schedule: Q04DX003 (ip), vehicle: Klucel (hydroxypropylcellulose) (HPC)
[5] = dose: 100.0 mg/kg/injection, schedule: Q04DX003 (ip), vehicle: Klucel (hydroxypropylcellulose) (HPC)
[6] = dose: 200.0 mg/kg/injection, schedule: Q04DX003 (ip), vehicle: Klucel (hydroxypropylcellulose) (HPC)
[7] = dose: 100.0 mg/kg/injection, schedule: Q04DX003 (ip), vehicle: saline with Tween-80
[8] = dose: 200.0 mg/kg/injection, schedule: Q04DX003 (ip), vehicle: saline with Tween-80
[9] = dose: 400.0 mg/kg/injection, schedule: Q04DX003 (ip), vehicle: saline with Tween-80
[10] = dose: 100.0 mg/kg/injection, schedule: Q04DX002 (ip), vehicle: Klucel (hydroxypropylcellulose) (HPC)
[11] = dose: 200.0 mg/kg/injection, schedule: Q04DX002 (ip), vehicle: Klucel (hydroxypropylcellulose) (HPC)
[12] = dose: 400.0 mg/kg/injection, schedule: Q04DX002 (ip), vehicle: Klucel (hydroxypropylcellulose) (HPC)
[13] = dose: 100.0 mg/kg/injection, schedule: Q01DX001 (ip), vehicle: other
[14] = dose: 200.0 mg/kg/injection, schedule: Q01DX001 (ip), vehicle: other
[15] = dose: 400.0 mg/kg/injection, schedule: Q01DX001 (ip), vehicle: other
[16] = dose: 400.0 mg/kg/injection, schedule: Q04DX003 (ip), vehicle: Klucel (hydroxypropylcellulose) (HPC)
[17] = dose: 6.25 mg/kg/injection, schedule: Q01DX009 (ip), vehicle: saline
[18] = dose: 12.5 mg/kg/injection, schedule: Q01DX009 (ip), vehicle: saline
[19] = dose: 12.5 mg/kg/injection, schedule: Q04DX003 (ip), vehicle: saline
[20] = dose: 25.0 mg/kg/injection, schedule: Q04DX003 (ip), vehicle: saline
[21] = dose: 50.0 mg/kg/injection, schedule: Q04DX003 (ip), vehicle: saline
[22] = dose: 25.0 mg/kg/injection, schedule: Q01DX009 (ip), vehicle: saline
[23] = dose: 50.0 mg/kg/injection, schedule: Q01DX009 (ip), vehicle: saline
[24] = dose: 100.0 mg/kg/injection, schedule: Q01DX009 (ip), vehicle: saline
[25] = dose: 100.0 mg/kg/injection, schedule: Q04DX003 (ip), vehicle: saline
[26] = dose: 100.0 mg/kg/injection, schedule: Q01DX001 (ip), vehicle: Klucel (hydroxypropylcellulose) (HPC)
[27] = dose: 200.0 mg/kg/injection, schedule: Q01DX001 (ip), vehicle: Klucel (hydroxypropylcellulose) (HPC)
[28] = dose: 400.0 mg/kg/injection, schedule: Q01DX001 (ip), vehicle: Klucel (hydroxypropylcellulose) (HPC)
[29] = dose: 200.0 mg/kg/injection, schedule: Q04DX003 (ip), vehicle: saline
[30] = dose: 100.0 mg/kg/injection, schedule: Q01DX001 (ip), vehicle: carboxymethylcellulose (CMC)
[31] = dose: 200.0 mg/kg/injection, schedule: Q01DX001 (ip), vehicle: carboxymethylcellulose (CMC)
[32] = dose: 400.0 mg/kg/injection, schedule: Q01DX001 (ip), vehicle: carboxymethylcellulose (CMC)
[33] = dose: 100.0 mg/kg/injection, schedule: Q01DX009 (ip), vehicle: Klucel (hydroxypropylcellulose) (HPC)
[34] = dose: 200.0 mg/kg/injection, schedule: Q01DX009 (ip), vehicle: Klucel (hydroxypropylcellulose) (HPC)
[35] = dose: 400.0 mg/kg/injection, schedule: Q01DX009 (ip), vehicle: Klucel (hydroxypropylcellulose) (HPC)

Measured: T/C

CC(CCCCC1NC(=O)NC1C)C(=O)O (stereo not given)
inactive: [1] 95 % of control | [2] 90 % of control | [3] 90 % of control

CCOC(=O)C1C(=O)NC(C(=O)OCC)(C(=O)OCC)C1C(C)C (stereo not given)
inactive: [4] 96 % of control | [5] 100 % of control | [6] 96 % of control

CC(C)[N+](C(C)C)(C(C)C)C(C)C.[I][Pb]([I])([I])[I]
inactive: [7] 95 % of control | [8] 98 % of control | [9] 93 % of control

CCCCCCCCCCCCC(O)(CC)C(=O)O (stereo not given)
inactive: [10] 98 % of control | [11] 91 % of control | [12] 91 % of control

COC(=O)CCC(=O)c1cc(OC)c2cc3ccccc3cc2c1OC
inactive: [13] 96 % of control | [14] 96 % of control | [15] 100 % of control

O=[N+]([O-])c1ccc(C=Nc2ccccc2S)s1
inactive: [5] 100 % of control | [6] 96 % of control | [16] 94 % of control

c1cc[n+]2c(c1)-c1cccc[n+]1CC2
inactive: [17] 108 % of control | [18] 104 % of control | [19] 104 % of control | dose: 15.0 mg/kg/injection, schedule: Q01DX001 (ip), vehicle: saline 95 % of control | [20] 104 % of control | dose: 30.0 mg/kg/injection, schedule: Q01DX001 (ip), vehicle: saline 102 % of control | [21] 101 % of control | dose: 60.0 mg/kg/injection, schedule: Q01DX001 (ip), vehicle: saline 102 % of control | dose: 75.0 mg/kg/injection, schedule: Q01DX001 (ip), vehicle: saline 95 % of control

CC(CCc1ccccc1)NC(C)C(O)c1ccc(O)cc1 (stereo not given)
inactive: [17] 101 % of control | [18] 104 % of control | [19] 94 % of control | [22] 98 % of control | [20] 102 % of control | [23] 97 % of control | [21] 94 % of control | [24] 97 % of control | [25] 89 % of control

O=C(O)C1CCC=CCC1
inactive: dose: 50.0 mg/kg/injection, schedule: Q01DX009 (ip), vehicle: other 91 % of control | dose: 100.0 mg/kg/injection, schedule: Q01DX009 (ip), vehicle: other 96 % of control | dose: 200.0 mg/kg/injection, schedule: Q01DX009 (ip), vehicle: other 98 % of control

CC(C)(C)C(=O)Nc1ccc(NS(=O)(=O)c2ccccc2)c(Cl)c1
inactive: dose: 50.0 mg/kg/injection, schedule: Q01DX001 (ip), vehicle: Klucel (hydroxypropylcellulose) (HPC) 108 % of control | [26] 97 % of control | [27] 109 % of control

CCN(CC)CCCC(C)Nc1cc(/C=C/c2ccc(Cl)cc2)nc(/C=C/c2ccc(Cl)cc2)n1 (stereo not given)
inactive: [4] 96 % of control | [1] 96 % of control | [5] 96 % of control | [2] 98 % of control | [6] 98 % of control

CC(C)(C)N(O)C(=O)NCCCl
inactive: [26] 97 % of control | [27] 92 % of control | [28] 97 % of control

O=C(C(F)F)C(F)F
inactive: [23] 91 % of control | [24] 91 % of control | [25] 106 % of control | [29] 104 % of control

Cc1ccc2c(c1)C(=O)c1ccccc1C2=O
inactive: dose: 50.0 mg/kg/injection, schedule: Q01DX001 (ip), vehicle: carboxymethylcellulose (CMC) 95 % of control | [30] 101 % of control | [10] 100 % of control | [31] 91 % of control | [11] 107 % of control | [32] 95 % of control | [12] 96 % of control

CNNc1cc(CO)cnc1SC
inactive: [1] 105 % of control | [2] 104 % of control

CC(C)OC(=S)SCC(=O)c1ccc(-c2ccccc2)cc1
inactive: [10] 96 % of control | [11] 92 % of control | [12] 96 % of control

CC12C=CC3(CCC4C(C)(C)C(=O)C(O)=CC4(C)C3CC1=O)C2 (stereo not given)
inactive: [33] 103 % of control | [5] 95 % of control | [34] 94 % of control | [6] 98 % of control | [35] 94 % of control | [16] 98 % of control

O=c1c2ccccc2[nH]c(=S)n1CCc1ccccn1
inactive: [10] 100 % of control | [11] 95 % of control | [12] 89 % of control

CNC(=O)Oc1ccc(N=Nc2ccccc2)cc1
inactive: [13] 96 % of control | [14] 96 % of control | [15] 96 % of control

N#CC(N)=NC1CCC(C2CCC(N)CC2)CC1 (stereo not given)
inactive: [33] 97 % of control | [5] 107 % of control | [34] 97 % of control | [6] 94 % of control | [35] 98 % of control | [16] 97 % of control

CC(C)N=NCCO
inactive: [26] 101 % of control | [27] 103 % of control | [34] 92 % of control | [28] 99 % of control

Clc1ccc2nc(C(Cl)(Cl)Cl)[nH]c2c1
inactive: [7] 98 % of control | [8] 104 % of control | [9] 95 % of control

C=C(C)C1C2OC(=O)C1C1(O)CC3OC34C(=O)OC2C14C (stereo not given)
inactive: dose: 1.25 mg/kg/injection, schedule: Q01DX001 (ip), vehicle: other 109 % of control | dose: 2.5 mg/kg/injection, schedule: Q01DX001 (ip), vehicle: other 101 % of control

C=C(Cl)CSC(=S)N(C)C
inactive: [23] 98 % of control | [24] 98 % of control

CC1CC(=O)c2c(O)ccc(O)c21 (stereo not given)
inactive: [30] 96 % of control | [31] 89 % of control | [32] 100 % of control

COc1ccc2c(c1)C13CCN(C)C(C2)C1CCC1(C3)OCCO1 (stereo not given)
inactive: [18] 103 % of control | [22] 94 % of control | [23] 97 % of control | [1] 109 % of control | [33] 106 % of control | [25] 105 % of control | [2] 101 % of control | [29] 86 % of control | [3] 95 % of control

COC(=O)C(Br)CBr (stereo not given)
inactive: [22] 100 % of control | [23] 105 % of control | [24] 98 % of control and 105 % of control | [25] 102 % of control | [29] 116 % of control

c1ccc(CC(CNCC2C(c3ccccc3)C2c2ccccc2)c2ccccc2)cc1 (stereo not given)
inactive: dose: 12.5 mg/kg/injection, schedule: Q04DX002 (ip), vehicle: saline with Tween-80 96 % of control | dose: 25.0 mg/kg/injection, schedule: Q04DX002 (ip), vehicle: saline with Tween-80 93 % of control | dose: 50.0 mg/kg/injection, schedule: Q04DX002 (ip), vehicle: saline with Tween-80 90 % of control

O=C1NC(=O)C(=O)N1
inactive: [25] 96 % of control | [29] 96 % of control | dose: 400.0 mg/kg/injection, schedule: Q04DX003 (ip), vehicle: saline 86 % of control

NC(c1ccccc1)C(O)c1ccccc1 (stereo not given)
inactive: dose: 37.5 mg/kg/injection, schedule: Q04DX003 (ip), vehicle: saline 98 % of control | dose: 75.0 mg/kg/injection, schedule: Q04DX003 (ip), vehicle: saline 92 % of control | dose: 150.0 mg/kg/injection, schedule: Q04DX003 (ip), vehicle: saline 101 % of control

O=S(=O)(O)c1ccc(-c2ccccc2)cc1
inactive: dose: 50.0 mg/kg/injection, schedule: Q01DX009 (ip), vehicle: Klucel (hydroxypropylcellulose) (HPC) 106 % of control | [33] 94 % of control | [5] 89 % of control | [6] 94 % of control
